Data: the supplement of paper PMC10307832

Assays:
Assay in all cases: relative viability (nuclei count vs DMSO), 5 days (fraction); higher = more cells survive
Bosutinib = compound: COc1cc(Nc2c(C#N)cnc3cc(OCCCN4CCN(C)CC4)c(OC)cc23)c(Cl)cc1Cl [Bosutinib]
Summary of the method: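 Five library-drug doses, separated by factors of √10, were pinned into 1536-well plates holding lung cancer cell lines after an overnight stay at 37 °C. Cells were fixed, permeabilised and Hoechst-stained in one step after 5 days without medium change, then imaged at 4×. Viability compares treated-well with vehicle-well nuclei, counted in MetaXpress, as a median across plates. Passing plates had control CV below 25% and at least one doubling.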

Bosutinib + Luminespib = compound: COc1cc(Nc2c(C#N)cnc3cc(OCCCN4CCN(C)CC4)c(OC)cc23)c(Cl)cc1Cl [Bosutinib] + CCNC(=O)c1noc(-c2cc(C(C)C)c(O)cc2O)c1-c1ccc(CN2CCOCC2)cc1 [Luminespib] (partner 0.01 µM)
Summary of the method: (§1)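 One day after seeding in 1536-well plates, lung cancer cell lines were dosed by pin tool. Dosing was either single-drug or a fixed anchor-drug dose plus five library-drug doses (not always all listed) in √10 steps. After 5 days, nuclei were stained in one fix-and-stain step and counted on 4× images, and relative viability is the nuclei count of treated wells over that of vehicle wells, given as the median of duplicate plates.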

Bosutinib + Foretinib = compound: COc1cc(Nc2c(C#N)cnc3cc(OCCCN4CCN(C)CC4)c(OC)cc23)c(Cl)cc1Cl [Bosutinib] + COc1cc2c(Oc3ccc(NC(=O)C4(C(=O)Nc5ccc(F)cc5)CC4)cc3F)ccnc2cc1OCCCN1CCOCC1 [Foretinib] (partner 0.25 µM)
Summary of the method: as §1

Bosutinib + OSI-027 = compound: COc1cc(Nc2c(C#N)cnc3cc(OCCCN4CCN(C)CC4)c(OC)cc23)c(Cl)cc1Cl [Bosutinib] + COc1cccc2cc(-c3nc([C@H]4CC[C@H](C(=O)O)CC4)n4ncnc(N)c34)[nH]c12 [OSI-027] (partner 0.5 µM)
Summary of the method: as §1

Bosutinib + Tozasertib = compound: COc1cc(Nc2c(C#N)cnc3cc(OCCCN4CCN(C)CC4)c(OC)cc23)c(Cl)cc1Cl [Bosutinib] + Cc1cc(Nc2cc(N3CCN(C)CC3)nc(Sc3ccc(NC(=O)C4CC4)cc3)n2)n[nH]1 [Tozasertib] (partner 0.1 µM)
Summary of the method: as §1

Bosutinib + Dasatinib = compound: COc1cc(Nc2c(C#N)cnc3cc(OCCCN4CCN(C)CC4)c(OC)cc23)c(Cl)cc1Cl [Bosutinib] + Cc1nc(Nc2ncc(C(=O)Nc3c(C)cccc3Cl)s2)cc(N2CCN(CCO)CC2)n1 [Dasatinib] (partner 0.075 µM)
Summary of the method: as §1

Bosutinib + Phenformin = compound: COc1cc(Nc2c(C#N)cnc3cc(OCCCN4CCN(C)CC4)c(OC)cc23)c(Cl)cc1Cl [Bosutinib] + N=C(N)NC(=N)NCCc1ccccc1 [Phenformin] (partner 250 µM)
Summary of the method: as §1

Bosutinib + Trametinib = compound: COc1cc(Nc2c(C#N)cnc3cc(OCCCN4CCN(C)CC4)c(OC)cc23)c(Cl)cc1Cl [Bosutinib] + CC(=O)Nc1cccc(-n2c(=O)n(C3CC3)c(=O)c3c(Nc4ccc(I)cc4F)n(C)c(=O)c(C)c32)c1 [Trametinib] (partner 0.02 µM)
Summary of the method: as §1

Bosutinib + Palbociclib = compound: COc1cc(Nc2c(C#N)cnc3cc(OCCCN4CCN(C)CC4)c(OC)cc23)c(Cl)cc1Cl [Bosutinib] + CC(=O)c1c(C)c2cnc(Nc3ccc(N4CCNCC4)cn3)nc2n(C2CCCC2)c1=O [Palbociclib] (partner 0.5 µM)
Summary of the method: as §1

Bosutinib + AZD7762 = compound: COc1cc(Nc2c(C#N)cnc3cc(OCCCN4CCN(C)CC4)c(OC)cc23)c(Cl)cc1Cl [Bosutinib] + NC(=O)Nc1cc(-c2cccc(F)c2)sc1C(=O)N[C@H]1CCCNC1 [AZD7762] (partner 0.2 µM)
Summary of the method: as §1

Bosutinib + Pemetrexed = compound: COc1cc(Nc2c(C#N)cnc3cc(OCCCN4CCN(C)CC4)c(OC)cc23)c(Cl)cc1Cl [Bosutinib] + Nc1nc2[nH]cc(CCc3ccc(C(=O)N[C@@H](CCC(=O)O)C(=O)O)cc3)c2c(=O)[nH]1 [Pemetrexed] (partner 0.2 µM)
Summary of the method: as §1

Bosutinib + Decitabine = compound: COc1cc(Nc2c(C#N)cnc3cc(OCCCN4CCN(C)CC4)c(OC)cc23)c(Cl)cc1Cl [Bosutinib] + Nc1ncn([C@H]2C[C@H](O)[C@@H](CO)O2)c(=O)n1 [Decitabine] (partner 2 µM)
Summary of the method: as §1

Bosutinib + Vorinostat = compound: COc1cc(Nc2c(C#N)cnc3cc(OCCCN4CCN(C)CC4)c(OC)cc23)c(Cl)cc1Cl [Bosutinib] + O=C(CCCCCCC(=O)Nc1ccccc1)NO [Vorinostat] (partner 1 µM)
Summary of the method: as §1

Bosutinib + Olaparib = compound: COc1cc(Nc2c(C#N)cnc3cc(OCCCN4CCN(C)CC4)c(OC)cc23)c(Cl)cc1Cl [Bosutinib] + O=C(c1cc(Cc2n[nH]c(=O)c3ccccc23)ccc1F)N1CCN(C(=O)C2CC2)CC1 [Olaparib] (partner 8 µM)
Summary of the method: as §1

Cell Line: NCI-H1623
- relative viability (Bosutinib; 0.01 µM): 0.891
- relative viability (Bosutinib; 0.03162 µM): 0.95
- relative viability (Bosutinib; 0.1 µM): 0.979
- relative viability (Bosutinib; 1 µM): 0.724
- relative viability (Bosutinib + Luminespib; first compound 0.01 µM): 0.645
- relative viability (Bosutinib + Luminespib; first compound 0.03162 µM): 0.565
- relative viability (Bosutinib + Luminespib; first compound 0.1 µM): 0.517
- relative viability (Bosutinib + Luminespib; first compound 1 µM): 0.497
- relative viability (Bosutinib + Foretinib; first compound 0.01 µM): 0.854
- relative viability (Bosutinib + Foretinib; first compound 0.03162 µM): 0.846
- relative viability (Bosutinib + Foretinib; first compound 0.1 µM): 0.866
- relative viability (Bosutinib + Foretinib; first compound 1 µM): 0.64
- relative viability (Bosutinib + OSI-027; first compound 0.01 µM): 0.432
- relative viability (Bosutinib + OSI-027; first compound 0.03162 µM): 0.418
- relative viability (Bosutinib + OSI-027; first compound 0.1 µM): 0.45
- relative viability (Bosutinib + OSI-027; first compound 1 µM): 0.416
- relative viability (Bosutinib + Tozasertib; first compound 0.01 µM): 0.474
- relative viability (Bosutinib + Tozasertib; first compound 0.03162 µM): 0.425
- relative viability (Bosutinib + Tozasertib; first compound 0.1 µM): 0.428
- relative viability (Bosutinib + Tozasertib; first compound 1 µM): 0.399
- relative viability (Bosutinib + Dasatinib; first compound 0.01 µM): 0.38
- relative viability (Bosutinib + Dasatinib; first compound 0.03162 µM): 0.555
- relative viability (Bosutinib + Dasatinib; first compound 0.1 µM): 0.542
- relative viability (Bosutinib + Dasatinib; first compound 1 µM): 0.57
- relative viability (Bosutinib + Phenformin; first compound 0.01 µM): 0.534
- relative viability (Bosutinib + Phenformin; first compound 0.03162 µM): 0.591
- relative viability (Bosutinib + Phenformin; first compound 0.1 µM): 0.51
- relative viability (Bosutinib + Phenformin; first compound 1 µM): 0.51

Cell Line: NCI-H1648
- relative viability (Bosutinib; 0.01 µM): 1.15
- relative viability (Bosutinib; 0.03162 µM): 0.851
- relative viability (Bosutinib; 0.1 µM): 0.997
- relative viability (Bosutinib; 1 µM): 0.931
- relative viability (Bosutinib + Trametinib; first compound 0.01 µM): 0.548
- relative viability (Bosutinib + Trametinib; first compound 0.03162 µM): 0.501
- relative viability (Bosutinib + Trametinib; first compound 0.1 µM): 0.505
- relative viability (Bosutinib + Trametinib; first compound 1 µM): 0.421
- relative viability (Bosutinib + Palbociclib; first compound 0.01 µM): 0.297
- relative viability (Bosutinib + Palbociclib; first compound 0.03162 µM): 0.278
- relative viability (Bosutinib + Palbociclib; first compound 0.1 µM): 0.26
- relative viability (Bosutinib + Palbociclib; first compound 1 µM): 0.341
- relative viability (Bosutinib + OSI-027; first compound 0.01 µM): 0.286
- relative viability (Bosutinib + OSI-027; first compound 0.03162 µM): 0.251
- relative viability (Bosutinib + OSI-027; first compound 0.1 µM): 0.261
- relative viability (Bosutinib + OSI-027; first compound 1 µM): 0.245
- relative viability (Bosutinib + Tozasertib; first compound 0.01 µM): 0.594
- relative viability (Bosutinib + Tozasertib; first compound 0.03162 µM): 0.447
- relative viability (Bosutinib + Tozasertib; first compound 0.1 µM): 0.396
- relative viability (Bosutinib + Tozasertib; first compound 1 µM): 0.462
- relative viability (Bosutinib + AZD7762; first compound 0.01 µM): 0.659
- relative viability (Bosutinib + AZD7762; first compound 0.03162 µM): 0.639
- relative viability (Bosutinib + AZD7762; first compound 0.1 µM): 0.838
- relative viability (Bosutinib + AZD7762; first compound 1 µM): 0.61
- relative viability (Bosutinib + Pemetrexed; first compound 0.01 µM): 0.728
- relative viability (Bosutinib + Pemetrexed; first compound 0.03162 µM): 0.824
- relative viability (Bosutinib + Pemetrexed; first compound 0.1 µM): 0.744
- relative viability (Bosutinib + Pemetrexed; first compound 1 µM): 0.813
- relative viability (Bosutinib + Decitabine; first compound 0.01 µM): 0.471
- relative viability (Bosutinib + Decitabine; first compound 0.03162 µM): 0.622
- relative viability (Bosutinib + Decitabine; first compound 0.1 µM): 0.662
- relative viability (Bosutinib + Decitabine; first compound 1 µM): 0.675
- relative viability (Bosutinib + Vorinostat; first compound 0.01 µM): 0.389
- relative viability (Bosutinib + Vorinostat; first compound 0.03162 µM): 0.471
- relative viability (Bosutinib + Vorinostat; first compound 0.1 µM): 0.541
- relative viability (Bosutinib + Vorinostat; first compound 1 µM): 0.511
- relative viability (Bosutinib + Olaparib; first compound 0.01 µM): 0.953
- relative viability (Bosutinib + Olaparib; first compound 0.03162 µM): 0.703
- relative viability (Bosutinib + Olaparib; first compound 0.1 µM): 1.01
- relative viability (Bosutinib + Olaparib; first compound 1 µM): 0.77

Cell Line: NCI-H2342
- relative viability (Bosutinib; 0.01 µM): 0.961
- relative viability (Bosutinib; 0.03162 µM): 0.99
- relative viability (Bosutinib; 0.1 µM): 0.926
- relative viability (Bosutinib; 1 µM): 1.21
- relative viability (Bosutinib + Trametinib; first compound 0.01 µM): 0.706
- relative viability (Bosutinib + Trametinib; first compound 0.03162 µM): 0.703
- relative viability (Bosutinib + Trametinib; first compound 0.1 µM): 0.856
- relative viability (Bosutinib + Trametinib; first compound 1 µM): 1.1
- relative viability (Bosutinib + Palbociclib; first compound 0.01 µM): 0.539
- relative viability (Bosutinib + Palbociclib; first compound 0.03162 µM): 0.508
- relative viability (Bosutinib + Palbociclib; first compound 0.1 µM): 0.545
- relative viability (Bosutinib + Palbociclib; first compound 1 µM): 0.579
- relative viability (Bosutinib + Luminespib; first compound 0.01 µM): 0.587
- relative viability (Bosutinib + Luminespib; first compound 0.03162 µM): 0.714
- relative viability (Bosutinib + Luminespib; first compound 0.1 µM): 0.694
- relative viability (Bosutinib + Luminespib; first compound 1 µM): 0.666
- relative viability (Bosutinib + Foretinib; first compound 0.01 µM): 0.903
- relative viability (Bosutinib + Foretinib; first compound 0.03162 µM): 0.994
- relative viability (Bosutinib + Foretinib; first compound 0.1 µM): 0.999
- relative viability (Bosutinib + Foretinib; first compound 1 µM): 1.05
- relative viability (Bosutinib + OSI-027; first compound 0.01 µM): 0.634
- relative viability (Bosutinib + OSI-027; first compound 0.03162 µM): 0.669
- relative viability (Bosutinib + OSI-027; first compound 0.1 µM): 0.702
- relative viability (Bosutinib + OSI-027; first compound 1 µM): 0.718
- relative viability (Bosutinib + Tozasertib; first compound 0.01 µM): 0.51
- relative viability (Bosutinib + Tozasertib; first compound 0.03162 µM): 0.449
- relative viability (Bosutinib + Tozasertib; first compound 0.1 µM): 0.526
- relative viability (Bosutinib + Tozasertib; first compound 1 µM): 0.517
- relative viability (Bosutinib + Dasatinib; first compound 0.01 µM): 0.289
- relative viability (Bosutinib + Dasatinib; first compound 0.03162 µM): 0.305
- relative viability (Bosutinib + Dasatinib; first compound 0.1 µM): 0.317
- relative viability (Bosutinib + Dasatinib; first compound 1 µM): 0.344
- relative viability (Bosutinib + Phenformin; first compound 0.01 µM): 0.565
- relative viability (Bosutinib + Phenformin; first compound 0.03162 µM): 0.68
- relative viability (Bosutinib + Phenformin; first compound 0.1 µM): 0.56
- relative viability (Bosutinib + Phenformin; first compound 1 µM): 0.643
- relative viability (Bosutinib + AZD7762; first compound 0.01 µM): 0.445
- relative viability (Bosutinib + AZD7762; first compound 0.03162 µM): 0.553
- relative viability (Bosutinib + AZD7762; first compound 0.1 µM): 0.459
- relative viability (Bosutinib + AZD7762; first compound 1 µM): 0.55
- relative viability (Bosutinib + Pemetrexed; first compound 0.01 µM): 0.783
- relative viability (Bosutinib + Pemetrexed; first compound 0.03162 µM): 0.799
- relative viability (Bosutinib + Pemetrexed; first compound 0.1 µM): 0.813
- relative viability (Bosutinib + Pemetrexed; first compound 1 µM): 0.841
- relative viability (Bosutinib + Decitabine; first compound 0.01 µM): 0.691
- relative viability (Bosutinib + Decitabine; first compound 0.03162 µM): 0.744
- relative viability (Bosutinib + Decitabine; first compound 0.1 µM): 0.726
- relative viability (Bosutinib + Decitabine; first compound 1 µM): 0.855
- relative viability (Bosutinib + Vorinostat; first compound 0.01 µM): 0.779
- relative viability (Bosutinib + Vorinostat; first compound 0.03162 µM): 0.787
- relative viability (Bosutinib + Vorinostat; first compound 0.1 µM): 0.859
- relative viability (Bosutinib + Vorinostat; first compound 1 µM): 0.828
- relative viability (Bosutinib + Olaparib; first compound 0.01 µM): 0.419
- relative viability (Bosutinib + Olaparib; first compound 0.03162 µM): 0.379
- relative viability (Bosutinib + Olaparib; first compound 0.1 µM): 0.464
- relative viability (Bosutinib + Olaparib; first compound 1 µM): 0.432
